{"source": "patent US5543410A", "about": "“Pharmacological use of phthaloylhydrazide derivatives; combination and application thereof” (L.I.M.A.D. Limited, priority 1993, dated 1996)", "key": {"[1]": {"system": "convulsions caused by Corazolum and strychnine", "conditions": "30 and 60 mg/kg"}, "[2]": {"system": "suppuration and abscesses affecting the jaw", "conditions": "one day after"}, "[3]": {"test": "pharmacokinetics, plasma half-life", "assay_type": "in vivo"}, "[4]": {"system": "hemorrhoids", "from_the_text": "Similarly, anal fissures have represented a difficult problem for modern medicine to resolve. In this instance, the inflammatory component is associated with a morphological defect.\nThe drug was used in the form of suppositories in 0.1 g doses once daily, in order to treat acute hemorrhoids in patients whose ages were from twenty to sixty years."}, "[5]": {"system": "perineal cutaneous melanoma"}, "[6]": {"test": "metabolic products", "assay_type": "in vivo", "conditions": "in vivo; read-out: fraction of compound decomposed into 5-aminophthalic acid, oxygen, and nitrogen"}, "[7]": {"system": "male rats", "conditions": "rat, in vivo"}, "[8]": {"test": "passage through living membranes / microbial membranes"}, "[9]": {"system": "guinea pigs"}, "[10]": {"system": "cancer affecting the left breast, metastatic tumors"}, "[11]": {"system": "leucocytes", "conditions": "inflammation of the cornea"}, "[12]": {"system": "pregnant female rats", "conditions": "60 mg/kg single dose, intraperitoneal"}, "[13]": {"system": "abortion induced by Salmonella typhinurium endotoxin", "conditions": "15 mg/kg; abortions in eighty percent without drug"}, "[14]": {"system": "neutrophils", "conditions": "in vivo (whole blood), NST test"}, "[15]": {"system": "inflammation of the mucosae, chronic tonsillitis", "test": "inflammation of the mucosae / chronic tonsillitis (gargling)", "assay_type": "in vivo", "conditions": "gargling solution"}, "[16]": {"system": "proctosigmoiditis"}, "[17]": {"system": "tumor necrosis factor (TNF)"}, "[18]": {"system": "psoriasis", "conditions": "2 to 5 mg/kg"}, "[19]": {"system": "acute intestinal infections"}, "[20]": {"system": "macrophages", "conditions": "in vitro and in vivo; SV-40 affected cancer cells, glioma cultures"}, "[21]": {"system": "peroxidation of blood plasma", "method": "(§1) In models corresponding to acute purulent inflammation (wounds) caused by inoculation of a suspension of pathogenic microbes, such as E. coli and S. aureus, pentane production within air exhaled by the respective animals was measured."}, "[22]": {"system": "acute purulent inflammation (wounds) caused by E. coli and S. aureus", "conditions": "single administration", "method": "as §1"}, "[23]": {"conditions": "model systems (micellar phase); times less", "method": "as §1"}, "[24]": {"test": "general pharmacological / toxicological assessment", "assay_type": "in vivo"}, "[25]": {"system": "viral hepatitis B", "method": "Rectal suppositories containing the drug, which was to be administered in doses of 100 mg per day for ten days, were prescribed for this patient."}, "[26]": {"system": "male mice", "conditions": "30 and 60 mg/kg"}, "[27]": {"system": "non-specific ulcerative colitis and Crohn's disease", "method": "These patients complained of periodic worsening of their symptoms over periods of three to five years.\n100 mg per day of the drug was administered intravenously to these patients for three days.\nOn subsequent days, intramuscular administration of the drug was provided once daily, along with a 100 mg rectal suppository."}, "[28]": {"system": "suppuration of a paracolostomy incision", "method": "The patient cited pain in the region affected by infiltration, and an increase in body temperature was observed. A suppository containing 200 mg of the drug was applied to the incision. […] An identical dose of the drug was administered again twelve hours later."}, "[29]": {"system": "chronic inflammation of female genitalia", "conditions": "100 mg once each day"}, "[30]": {"conditions": "in vivo"}, "[31]": {"conditions": "100 mg intramuscular on alternating days"}, "[32]": {"conditions": "100 mg per day rectal suppositories"}}, "note": "Like-named read-outs stand apart in the source and are kept apart here."}
{"compound": "Nc1cccc2c(=O)[nH][nH]c(=O)c12", "values": [{"measurement": "prevention of convulsions", "setting": "[1]", "value": "did not prevent convulsions"}, {"measurement": "therapeutic effect", "setting": "[2]; 1 mg/kg", "value": "no therapeutic effect had occurred"}, {"measurement": "patients with therapeutic effect", "setting": "[2]; 2 mg/kg", "value": "four"}, {"measurement": "patients with therapeutic effect", "setting": "[2]; 4 mg/kg, each of the six patients", "value": "six"}, {"measurement": "duration of activity in hydrophobic phase of living membranes", "setting": "[3]; in vivo", "value": "remains active for several hours"}, {"measurement": "half-life", "setting": "[3]; intramuscular and rectal", "value": "forty to sixty"}, {"measurement": "half-life within blood plasma", "setting": "[3]; intravenous", "value": "five to fifteen"}, {"measurement": "recovery", "setting": "[4]; 0.1 g once daily", "value": "The patients recovered fully"}, {"measurement": "time until inflammatory process and enlargement of hemorrhoidal nodes disappeared", "setting": "[4]; 0.1 g once daily", "value": "fifth"}, {"measurement": "time until anal pain ceased", "setting": "[4]; 0.1 g suppositories once daily", "value": "Seventeen to thirty"}, {"measurement": "time to alleviation of pain syndrome", "setting": "[4]; rectal administration", "value": "thirty"}, {"measurement": "inflammatory process and edema", "setting": "[4]; twelve hours", "value": "significant shrinkage of the inflammatory process and reduction of edema in hemorrhoidal nodes"}, {"measurement": "infiltration in the region of the postoperative scar", "setting": "[5]; 100 mg intramuscular every day, checkup thirty days later", "value": "disappearance of infiltration in the region of the postoperative scar was observed"}, {"measurement": "abnormal salivation", "setting": "[5]; [31]", "value": "On the third day after the commencement of treatment, abnormal salivation began"}, {"measurement": "vomiting and diuresis", "setting": "[5]; [31]", "value": "vomiting occurred on the fourth day, along with an increase in diuresis"}, {"measurement": "cessation of symptoms (salivation, vomiting, diuresis)", "setting": "[5]; in vivo", "value": "gradually ceased on the thirteenth and fourteenth days"}, {"measurement": "metabolised", "setting": "[6]", "value": "> 90", "unit": "%"}, {"measurement": "average fluctuations in blood pressure levels in comparison with initial levels", "setting": "[7]", "value": "2.79±0.72"}, {"measurement": "time to return of blood pressure to initial level", "setting": "[7]", "value": "thirty"}, {"measurement": "rise in blood pressure in relation to the initial level", "setting": "[7]; iv", "value": "1.57±5.93", "unit": "%"}, {"measurement": "passage through the hydrophobic phase of living membranes", "setting": "[8]", "value": "easily passing through the hydrophobic phase of living membranes"}, {"measurement": "erythema at the site of administration", "setting": "[9]; even large doses", "value": "Erythema was not encountered"}, {"measurement": "indications of allergies", "setting": "[9]; subcutaneous or oral administration", "value": "no indications of allergies were observed"}, {"measurement": "intensity of pain", "setting": "[10]; after first injection, 100 mg intramuscular every two days", "value": "the intensity of their pain decreased significantly"}, {"measurement": "general condition", "setting": "[10]; alternate days intramuscular", "value": "a steady improvement in the patient's general condition was observed"}, {"measurement": "urine, urination, perspiration", "setting": "[10]; in vivo", "value": "their urine became more dense, frequent urination began, and their perspiration acquired a rather foul odor"}, {"measurement": "vomiting, stools", "setting": "[10]; in vivo", "value": "vomiting began, and the patient's stools were malodorous"}, {"measurement": "edema", "setting": "[10]; thirteenth and fourteenth days", "value": "had diminished significantly"}, {"measurement": "condition and appetite", "setting": "[10]; twentieth day", "value": "the patient's condition improved, and their appetite was restored"}, {"measurement": "leucocyte adhesion properties and chemotaxis", "setting": "[11]", "value": "An increase in leucocyte adhesion properties and intensification of chemotaxis"}, {"measurement": "fetal abnormalities", "setting": "[12]", "value": "No fetal abnormalities were found"}, {"measurement": "abortion prevented", "setting": "[13]", "value": "seven"}, {"measurement": "rate at which superoxide radicals formed", "setting": "[14]", "value": "an increase in the rate at which superoxide radicals formed"}, {"measurement": "inflammation of the mucosae", "setting": "[15]", "value": "favorable results were obtained"}, {"measurement": "time until symptoms and pain disappeared", "setting": "[16]; [32]", "value": "one"}, {"measurement": "complaints", "setting": "[16]; by the seventh day", "value": "the patients no longer complained of symptoms"}, {"measurement": "rectosigmoidoscopy finding", "setting": "[16]; checkups", "value": "renewal of normal conditions was observed within the rectal mucosae and within the sigmoid colon"}, {"measurement": "action of TNF in mutated cells", "setting": "[17]", "value": "intensifies the action of the tumor necrosis factor (TNF) in mutated cells"}, {"measurement": "development of psoriasis", "setting": "[18]", "value": "did not substantially influence the development of psoriasis"}, {"measurement": "time to improvement, decrease in abdominal pain, cessation of diarrhea", "setting": "[19]; 200 mg in isotonic aqueous solution", "value": "Forty to fifty"}, {"measurement": "fecal cultures for bacillary dysentery and Salmonella", "setting": "[19]; in vivo", "value": "negative"}, {"measurement": "symptoms of intoxication", "setting": "[19]; one day after admission", "value": "all of the symptoms of intoxication had disappeared"}, {"measurement": "transformation of macrophages into killer cells", "setting": "[20]", "value": "transformation of a certain portion of macrophages into killer cells"}, {"measurement": "antioxidant effectiveness versus known antioxidants", "setting": "[21]; blood plasma", "value": "significantly superior to known antioxidants such as dibunol, alphatocopherol, and superoxydismutaze (SOD)"}, {"measurement": "increase in retardation constant for peroxidation of blood plasma", "setting": "[21]; two to five minutes after administration", "value": "ten to twelve"}, {"measurement": "pentane level attained", "setting": "[22]", "value": "until a normal level was attained"}, {"measurement": "time to reduction in pentane in exhaled air", "setting": "[22]", "value": "thirty to sixty"}, {"measurement": "antioxidant effectiveness less than previously identified antioxidants", "setting": "[23]", "value": "thirty to fifty"}, {"measurement": "storage period (stable)", "setting": "anhydrous conditions", "value": "> 1", "unit": "year"}, {"measurement": "expiration period", "setting": "aqueous solution", "value": "> ten to twenty"}, {"measurement": "toxicity", "setting": "[24]; acceptable dosages", "value": "wholly non-toxic"}, {"measurement": "level of pharmacological activity", "setting": "[24]; determined experimentally", "value": "higher level of pharmacological activity"}, {"measurement": "time to improvement (lethargy, pain disappeared)", "setting": "[25]; [32]", "value": "third"}, {"measurement": "time to normal biochemical blood data", "setting": "[25]; [32]", "value": "tenth"}, {"measurement": "chronic development of the process", "setting": "[25]; six subsequent months", "value": "absence of chronic development of the process"}, {"measurement": "bile pigments reaction", "setting": "[25]; tenth day", "value": "negative"}, {"measurement": "ultrasound examination of liver", "setting": "[25]; tenth day", "value": "No pathological conditions affecting the liver were observed"}, {"measurement": "symptoms and hepatic functions", "setting": "[25]; volunteers, 2 to 5 mg/kg per day, initial phase of chronic stage", "value": "symptoms were eliminated and previously impaired hepatic functions were restored"}, {"measurement": "threshold for sensitivity to pain", "setting": "[26]", "value": "did not alter the threshold for sensitivity to pain"}, {"measurement": "natural orientation reflex", "setting": "[26]; intraabdominal", "value": "did not suppress the natural orientation reflex"}, {"measurement": "muscle tone", "setting": "[26]; pivot pin method", "value": "did not cause changes in muscle tone"}, {"measurement": "time until abdominal and joint pain lessened", "setting": "[27]; 100 mg per day intravenous", "value": "Thirty"}, {"measurement": "frequency of defecation", "setting": "[27]; first three days", "value": "frequency of defecation was reduced"}, {"measurement": "frequency of defecation", "setting": "[27]; fourteenth day", "value": "once or twice"}, {"measurement": "rectosigmoidoscopy finding", "setting": "[27]; in vivo", "value": "did not reveal the presence of pus or blood, although traces of an inflammatory process were observed within mucous membranes"}, {"measurement": "frequency of defecation", "setting": "[27]; sixth day", "value": "two or three"}, {"measurement": "pain and skin eruptions", "setting": "[27]; sixth day", "value": "They were no longer experiencing pain, their skin eruptions had disappeared"}, {"measurement": "time to decline of temperature", "setting": "[28]; 200 mg suppository", "value": "Six"}, {"measurement": "time until pain ceased", "setting": "[28]; 200 mg suppository applied to incision", "value": "twenty to thirty"}, {"measurement": "wound", "setting": "[28]; six days of treatment", "value": "the wound was wholly devoid of pus"}, {"measurement": "edema within soft tissues", "setting": "[28]; twenty-one hours after commencement", "value": "had decreased significantly"}, {"measurement": "time to healing", "setting": "[29]", "value": "eighth"}, {"measurement": "time until vaginal secretions ceased completely", "setting": "[29]", "value": "fifth"}, {"measurement": "therapeutic effect", "setting": "[29]; second day", "value": "the therapeutic effect was observable"}, {"measurement": "CL renal", "setting": "[30]", "value": "50 to 80", "unit": "mL/min"}]}
